Measured values taken from patent US20200165653A1, “METHOD OF MEASURING FLUID SECRETION FUNCTION OF EPITHELIAL CELLS” (NATIONAL UNIVERSITY CORPORATION TOKYO MEDICAL AND DENTAL …, priority 2017, published 2020).
Structures can show the parent of a compound that is named as a salt. No end group written: not given here.

Experiments:
[1] = system: human intestinal organoids; assay: Organoid swelling observed by phase contrast / time-lapse imaging; assay type: cell-based; conditions: for increase in cross-sectional area of organoids: 60 min after induction, same mediator concentrations as FIG. 11; for swelling response induced by endogenous mediator: PGE2 10^−8 M, VIP 10^−7 M, ACh 10^−3 M, histamine 10^−3 M, bradykinin 10^−5 M, serotonin 10^−3 M, up to 60 min after induction
Method: The phase contrast images illustrated are prior to swelling induction and 60 minutes after swelling induction. Scale-bar: 100 μm. Induction was by the addition to a culture medium of: PGE2 (10^−8 M, (A)), VIP (10^−7 M, (B)), ACh (10^−3 M, (C)), histamine (10^−3 M, (D)), bradykinin (10^−5 M, (E)), and serotonin (10^−3 M, (F)).
Examination of Endogenous Mediator Candidates for Anion/Fluid Secretion Next, the fluid secretion function measurement method of the present embodiment was employed to examine the direct effect of various endogenous mediators that might possibly induce anion/fluid secretion from intestinal epithelial cells by testing six types of endogenous mediators to determine if they had the capability to induce a swelling response in organoids equivalent to that of forskolin-induced swelling.

[2] = system: human jejunum-derived organoids; assay: Organoid swelling response quantified by cross-sectional area with 3D-scanning system; assay type: cell-based; conditions: for dose-response curve profile of swelling: human jejunal organoid, FIG. 12
Method: The organoid cross-sectional area was measured using a 3D-Scanning System (Cell3 […], Screen Holdings, Kyoto, Japan) as the image analysis device 100. […] After the passage of a preliminary culture process of leaving for 24 hours after seeding, scanning was then performed both before and 30 min after the addition of the reagent subject to analysis. An image was acquired during scanning in auto-focus (AF) mode. The analysis parameters summarized in following Table 1 were set and the cross-sectional area of recognized organoids measured automatically. Note that changes over time due to the addition of a reagent subjected to analysis can be observed in the following manner. Namely, an object is imaged at time (T0) prior to adding a reagent subjected to analysis (T0 imaging process). Then the same object is imaged at time (TN) when a prescribed time (30 minutes, for example) has elapsed since adding the reagent subjected to analysis. Determination is then made as to whether or not the object is an object subjected to analysis. By performing the selection process and the determination process, the change over time observations are only made for objects determined be subjected to analysis thereby at both time T0 and time TN. Then in an area change calculation process, an area (A0) at time T0 and an area (AN) at time TN are calculated for the objects subject to analysis. The change over time (%) based thereon can be found, for example, using the following formula. (AN-A0)/A0×100 Using forskolin-induced swelling as a positive control, testing was next performed so see if such a swelling response could be quantified using the 3D-scanning system described. To optimize the quantification efficiency and accuracy, organoids were subjected to analysis after performing the preliminary culture process at one day after the last passage. This was done since the organoids generally held their cystic shape at this time point. The thresholds to recognize cross-section borders of each organoid were then optimized as set out in Table 1. Thus utilizing the fluid secretion function measurement method of the present embodiment enables drug response screening to be performed at the same time as determining the dose-dependency curves of a limited number of test reagents. Whether or not the present system could determine the dose-dependency curves of forskolin was thereby tested. The dose-dependency curve for forskolin-induced swelling when using a human jejunum-derived organoids was thereby found to be expressed by a standard sigmoid shaped curve, with the log EC50 value thereof calculated as -7.58 (FIG. 10).

EC50 ([2]; human small intestinal (jejunum-derived) organoids, sigmoid dose-dependency curve, average of at least three independent tests, value is log EC50, read-out: log EC50 of forskolin-induced swelling (converted)) [nM]	Compound	increase in cross-sectional area of organoids [1]	swelling response induced by endogenous mediator [1]	dose-response curve profile of swelling [2]	time for which swelling continued ([1]; small intestinal organoids, forskolin 10^−5 M)	time of continuous linear swelling response after stimulation ([2]; forskolin 10^−5 M, observed up to 240 min, area change calculation)
	CCCCC[C@H](O)/C=C/[C@H]1[C@H](O)CC(=O)[C@@H]1C/C=C\CCCC(=O)O [PGE2, prostaglandin E2]	large overall increase	rapid and continuous response	clear sigmoid-shaped response curve		
26.3	C=C[C@@]1(C)CC(=O)[C@]2(O)[C@@]3(C)[C@@H](O)CCC(C)(C)[C@@H]3[C@H](O)[C@H](OC(C)=O)[C@@]2(C)O1 [forskolin]				at least 60 min	up to 30 min
	NCCc1c[nH]cn1 [histamine]	smaller than for PGE2 or VIP	slow and limited response	markedly lower response profile		
	NCCc1c[nH]c2ccc(O)cc12 [serotonin, serotonin hydrochloride]		did not exhibit a clear effect			
	vasoactive intestinal polypeptide (HSDAVFTDNYTRLRKQMAVKKYLNSILN; ends and bridges not checked; UniProt P01282 125-152, looked up) [VIP, endogenous mediator acting through Gs-coupled receptors]	large overall increase	rapid and continuous response	clear sigmoid-shaped response curve		
